Measured values reported in patent US11504382B2, “Tricyclic inhibitors of Hepatitis B virus” (Antios Therapeutics, Inc., priority 2018, dated 2022).
Like-named read-outs stand apart in the source and are kept apart here.

Tested on: HBV
Assay: HBV inhibition assay in HepAD38 cells (extracellular HBV DNA by direct qPCR)
Format: cell-based, Hepatitis B virus
Conditions: 96 hours; for EC50: 8-point dose-response curve, read-out: HBV inh EC50
[1] = Hepatitis B virus, 0.1 μM, relative to non-treated reference, read-out: Anti HBV Activity (conc μM)

Compound | EC50 (Hepatitis B virus) [nM] | inhibition at 0.1 µM [1] [%] | other results
Cc1cc(NC(=O)c2c3c(cn2C)S(=O)(=O)N[C@H]2CN(C(=O)C45CC(CO4)C5)C[C@H]2CO3)ccc1F [Example E109, (3aR,10aR)-2-(2-oxabicyclo[2.1.1]hexane-1-carbonyl)-N-(4-fluoro-3-methylphenyl)-7-methyl-2,3,3a,4,10,10a-hexahydro-1H,7H-dipyrrolo[3,4-b:3′,4′-f][1,4,5]oxathiazocine-8-carboxamide 5,5-dioxide] | < 1000 |  | 
Cc1cc(NC(=O)c2c3c(cn2C)S(=O)(=O)NC2CN(CC(F)(F)F)CC2CO3)ccc1F (stereo not drawn) [Example E80, cis-N-(4-fluoro-3-methylphenyl)-7-methyl-2-(2,2,2-trifluoroethyl)-2,3,3a,4,10,10a-hexahydro-1H,7H-dipyrrolo[3,4-b:3′,4′-f][1,4,5]oxathiazocine-8-carboxamide 5,5-dioxide] |  | > 50 | 
Cn1cc2c(c1C(=O)Nc1cc(F)c(F)c(F)c1)OCC1CN(CC#N)CC1NS2(=O)=O (stereo not drawn) [Example E74, cis-2-(cyanomethyl)-7-methyl-N-(3,4,5-trifluorophenyl)-2,3,3a,4,10,10a-hexahydro-1H,7H-dipyrrolo[3,4-b:3′,4′-f][1,4,5]oxathiazocine-8-carboxamide 5,5-dioxide] | < 1000 |  | inhibition at 0.05 µM (Hepatitis B virus, 0.05 μM, relative to non-treated reference, read-out: Anti HBV Activity (conc μM)): > 50%
Cc1nnc(C(=O)N2C[C@H]3COc4c(cn(C)c4C(=O)Nc4ccc(F)c(C)c4)S(=O)(=O)N[C@H]3C2)s1 [Example E107, (3aR,10aR)—N-(4-fluoro-3-methylphenyl)-7-methyl-2-(5-methyl-1,3,4-thiadiazole-2-carbonyl)-2,3,3a,4,10,10a-hexahydro-1H,7H-dipyrrolo[3,4-b:3′,4′-f][1,4,5]oxathiazocine-8-carboxamide 5,5-dioxide] | < 1000 |  | 
tert-butyl 7-methyl-8-((3,4,5-trifluorophenyl)carbamoyl)-3a,4,10,10a-tetrahydro-1H,7H-dipyrrolo[3,4-b:3′,4′-f][1,4,5]oxathiazocine-2(3H)-carboxylate 5,5-dioxide (3aR,10aR) [Example E33] |  |  | Anti HBV Activity (conc μM) (0.1 μM, relative to non-treated reference): B (0.1) (HBV inhibition less than 50% at the concentration indicated in the table)
CCOC(=O)N1CC2COc3c(cn(C)c3C(=O)Nc3ccc(F)c(Cl)c3)S(=O)(=O)NC2C1 (racemic) [Example E15, Cis-Ethyl 8-((3-chloro-4-fluorophenyl)carbamoyl)-7-methyl-3a,4,10,10a-tetrahydro-1H,7H-dipyrrolo[3,4-b:3′,4′-f][1,4,5]oxathiazocine-2(3H)-carboxylate 5,5-dioxide] | < 1000 | > 50 | 
Cn1cc2c(c1C(=O)Nc1cc(F)c(F)c(F)c1)OCC1CN(S(=O)(=O)C3CC3)CC1NS2(=O)=O (racemic) [Example E20, cis-2-(cyclopropylsulfonyl)-7-methyl-N-(3,4,5-trifluorophenyl)-2,3,3a,4,10,10a-hexahydro-1H,7H-dipyrrolo[3,4-b:3′,4′-f][1,4,5]oxathiazocine-8-carboxamide 5,5-dioxide] | < 1000 | > 50 | 
CC(C)S(=O)(=O)N1CC2COc3c(cn(C)c3C(=O)Nc3cc(F)c(F)c(F)c3)S(=O)(=O)NC2C1 (racemic) [Example E18, cis-2-(isopropylsulfonyl)-7-methyl-N-(3,4,5-trifluorophenyl)-2,3,3a,4,10,10a-hexahydro-1H,7H-dipyrrolo[3,4-b:3′,4′-f][1,4,5]oxathiazocine-8-carboxamide 5,5-dioxide] | < 1000 | > 50 | 
Cc1cc(NC(=O)c2c3c(cn2C)S(=O)(=O)N[C@@H]2CN(C(=O)c4ccncc4)C[C@@H]2CO3)ccc1F (relative stereo) [Example E55, cis-N-(4-fluoro-3-methylphenyl)-2-isonicotinoyl-7-methyl-2,3,3a,4,10,10a-hexahydro-1H,7H-dipyrrolo[3,4-b:3′,4′-f][1,4,5]oxathiazocine-8-carboxamide 5,5-dioxide] |  | > 50 | 
Cc1nnc(C(=O)N2CCC3NS(=O)(=O)c4cn(C)c(C(=O)Nc5ccc(F)c(C)c5)c4OCC3C2)o1 (racemic) [Example E130, Trans-N-(4-fluoro-3-methylphenyl)-2-methyl-8-(5-methyl-1,3,4-oxadiazole-2-carbonyl)-5,5a,6,7,8,9,9a,10-octahydro-2H-pyrido[4,3-f]pyrrolo[3,4-b][1,4,5]oxathiazocine-1-carboxamide 4,4-dioxide] |  |  | EC50: < 1000 nM
Cc1noc(N2C[C@H]3COc4c(cn(C)c4C(=O)Nc4ccc(F)c(C)c4)S(=O)(=O)N[C@H]3C2)n1 [Example E115, (3aR,10aR)—N-(4-fluoro-3-methylphenyl)-7-methyl-2-(3-methyl-1,2,4-oxadiazol-5-yl)-2,3,3a,4,10,10a-hexahydro-1H,7H-dipyrrolo[3,4-b:3′,4′-f][1,4,5]oxathiazocine-8-carboxamide 5,5-dioxide] | < 1000 |  | 
Cn1cc2c(c1C(=O)Nc1cc(F)c(F)c(F)c1)OCC1CN(c3cnccn3)CC1NS2(=O)=O (stereo not drawn) [Example E82, cis-7-methyl-2-(pyrazin-2-yl)-N-(3,4,5-trifluorophenyl)-2,3,3a,4,10,10a-hexahydro-1H,7H-dipyrrolo[3,4-b:3′,4′-f][1,4,5]oxathiazocine-8-carboxamide 5,5-dioxide] |  | > 50 | 
Cn1cc2c(c1C(=O)Nc1cc(F)c(F)c(F)c1)OCC1CN(S(C)(=O)=O)CC1NS2(=O)=O (racemic) [Example E19, cis-7-methyl-2-(methylsulfonyl)-N-(3,4,5-trifluorophenyl)-2,3,3a,4,10,10a-hexahydro-1H,7H-dipyrrolo[3,4-b:3′,4′-f][1,4,5]oxathiazocine-8-carboxamide 5,5-dioxide] | < 1000 | > 50 | 
Cc1nnc(C(=O)N2CC3NS(=O)(=O)c4cn(C)c(C(=O)Nc5ccc(F)c(C)c5)c4OCC3(C)C2)o1 (single isomer, unassigned) [Example E96, N-(4-fluoro-3-methylphenyl)-7,10a-dimethyl-2-(5-methyl-1,3,4-oxadiazole-2-carbonyl)-2,3,3a,4,10,10a-hexahydro-1H,7H-dipyrrolo[3,4-b:3′,4′-f][1,4,5]oxathiazocine-8-carboxamide 5,5-dioxide (Chiral 3aS,10aS or 3aR,10aR - Stereochemistry unknown)] |  |  | EC50: < 1000 nM
Cc1cc(NC(=O)c2c3c(cn2C)S(=O)(=O)NC2CN(C(=O)c4ncoc4C)CCC2CO3)ccc1F (racemic) [Example E144, Trans-N-(4-fluoro-3-methylphenyl)-2-methyl-7-(5-methyloxazole-4-carbonyl)-5,5a,6,7,8,9,9a,10-octahydro-2H-pyrido[3,4-f]pyrrolo[3,4-b][1,4,5]oxathiazocine-1-carboxamide 4,4-dioxide] |  |  | EC50: < 1000 nM
Cc1cc(NC(=O)c2c3c(cn2C)S(=O)(=O)N[C@H]2CN(C(=O)C4COC4)C[C@H]2CO3)ccc1F [Example E108, (3aR,10aR)—N-(4-fluoro-3-methylphenyl)-7-methyl-2-(oxetane-3-carbonyl)-2,3,3a,4,10,10a-hexahydro-1H,7H-dipyrrolo[3,4-b:3′,4′-f][1,4,5]oxathiazocine-8-carboxamide 5,5-dioxide] | < 1000 |  | 
Cc1nnc(C(=O)N2C[C@H]3COc4c(cn(C)c4C(=O)Nc4ccc(F)c(C)c4)S(=O)(=O)N[C@@H]3C2)o1 (single isomer, unassigned) [Example E153] | < 1000 |  | 
Cc1cc(NC(=O)c2c3c(cn2C)S(=O)(=O)NC2CN(C(=O)OC(C)(C)C)CC2CO3)ccc1F (stereo not drawn) [Example E145, Trans-Tert-Butyl 8-((4-fluoro-3-methylphenyl)carbamoyl)-7-methyl-3a,4,10,10a-tetrahydro-1H,7H-dipyrrolo[3,4-b:3′,4′-f][1,4,5]oxathiazocine-2(3H)-carboxylate 5,5-dioxide] | < 1000 |  | 
Cc1cc(NC(=O)c2c3c(cn2C)S(=O)(=O)NC2CCN(C(=O)C4(C)CCCO4)CC2CO3)ccc1F (racemic) [Example E127, Cis-N-(4-fluoro-3-methylphenyl)-2-methyl-8-(2-methyltetrahydrofuran-2-carbonyl)-5,5a,6,7,8,9,9a,10-octahydro-2H-pyrido[4,3-f]pyrrolo[3,4-b][1,4,5]oxathiazocine-1-carboxamide 4,4-dioxide] | < 1000 |  | 
Cc1cc(NC(=O)c2c3c(cn2C)S(=O)(=O)N[C@H]2CN(C(=O)C4CCO4)C[C@H]2CO3)ccc1F (stereo partly drawn) [Example E110, (3aR,10aR)—N-(4-fluoro-3-methylphenyl)-7-methyl-2-(oxetane-2-carbonyl)-2,3,3a,4,10,10a-hexahydro-1H,7H-dipyrrolo[3,4-b:3′,4′-f][1,4,5]oxathiazocine-8-carboxamide 5,5-dioxide] | < 1000 |  | 
Cn1cc2c(c1C(=O)Nc1cc(F)c(F)c(F)c1)OCC1CNCC1NS2(=O)=O (racemic) [Example E11, cis-7-methyl-N-(3,4,5-trifluorophenyl)-2,3,3a,4,10,10a-hexahydro-1H,7H-dipyrrolo[3,4-b:3′,4′-f][1,4,5]oxathiazocine-8-carboxamide 5,5-dioxide] | < 1000 | > 50 | 
Ethyl 8-((3-chloro-4-fluorophenyl)carbamoyl)-7-methyl-3a,4,10,10a-tetrahydro-1H,7H-dipyrrolo[3,4-b:3′,4′-f][1,4,5]oxathiazocine-2(3H)-carboxylate 5,5-dioxide (3aR,10aR) [Example E41] |  |  | Anti HBV Activity (conc μM) (0.05 μM, relative to non-treated reference): A (0.05) (HBV inhibition greater than 50% at the concentration indicated in the table); EC50: < 1000 nM
Cn1cc2c(c1C(=O)Nc1ccc(F)c(F)c1)OCC1CCCC1NS2(=O)=O (racemic) [Example E6, cis-N-(3,4-difluorophenyl)-2-methyl-5a,6,7,8,8a,9-hexahydro-2H,5H-cyclopenta[f]pyrrolo[3,4-b][1,4,5]oxathiazocine-1-carboxamide 4,4-dioxide] | < 1000 |  | inhibition at 0.5 µM (Hepatitis B virus, 0.5 μM, relative to non-treated reference, read-out: Anti HBV Activity (conc μM)): > 50%
